According to patent publication US10058493B2, “Oral care compositions and methods of use” (COLGATE-PALMOLIVE COMPANY, priority 2016, dated 2018):
“Also recorded” adds a separate entry of the source.

How the values were obtained:
Set-up in all cases: species or system human
[1] = Buffering effect on pH of saliva following sucrose challenge (bacterial acid production); settings: for effect on pH drop after sucrose challenge versus untreated control: Donors A-C, range of concentrations, 2, 4, 6 hours and overnight
Procedure: (§1) Aqueous solutions containing arginine and zinc salts were created to carry out the following Examples. Solution 1 was prepared by mixing L-arginine (0.375 g), zinc oxide (ZnO, 0.25 g), and zinc citrate trihydrate (0.125 g) in deionized water (24.25 mL). These values correspond to the following percentages by mass: 1.5% L-arginine, 1% ZnO, 0.5% zinc citrate trihydrate. Additional control solutions were prepared of each regent alone at equal concentrations. Each solution was diluted to 25 g total mass with deionized water.
Paraffin-stimulated whole saliva was collected from three healthy subjects (Donors A-C). Each saliva sample was mixed by ordinary means in the art. Prior to analysis, the ex-vivo saliva samples were pretreated with aliquots of the simple solutions to give a range of active dilutions (i.e., total Zn^2+ concentration of about 0-3000 ppm) including an untreated control in order to test for buffering effect against sucrose challenge as a function of zinc concentration. An initial pH of the treated sample was obtained. A sucrose solution (5%, 1 mL) was added to each saliva sample. The resultant was mixed for and then incubated at 37° C. and the pH was monitored at 2 hours, 4 hours, 6 hours, and overnight. Zinc concentration in each sample was determined by ICP-AES.
Further experiments were conducted to ensure that zinc oxide/zinc citrate/arginine, not its constituent parts, was needed to achieve the buffering capacity improvement described. The solutions tested were prepared according to the specifications as laid out in Table 3 above.

[2] = Buffering effect on pH of saliva following acid challenge with dilute hydrochloric acid; settings: 0.01 M HCl 6 mL; for acid buffering effect / pH of treated saliva after acid exposure: 20 min; for acid buffering effect: room temperature, Donors 1-3; for pH of treated saliva after acid exposure: all donors
Procedure: as §1
Paraffin-stimulated whole saliva was collected from three healthy subjects (Donors 1-3). Each saliva sample was mixed by ordinary means in the art. Immediately prior to analysis, the ex-vivo saliva samples were pretreated with aliquots of the simple solutions to give a range of active dilutions (i.e., total Zn^2+ concentration of about 0-1500 ppm) including an untreated control. The concentrations of actives (i.e., zinc oxide/zinc citrate/arginine, L-arginine, zinc oxide, zinc citrate) were varied between 0.0% to 50% across all samples, as shown in FIGS. 5-10.
An initial pH of the treated sample was obtained. Dilute hydrochloric acid (HCl, 0.01 M, 6 mL) was added to each saliva sample. The resultant was mixed for 20 minutes at room temperature. The pH of the sample was recorded at the conclusion of the reaction time. Zinc concentration in each sample was determined by ICP-AES.

[3] = Buffering effect on pH of saliva following acid challenge with cola beverage; settings: cola titration; 0.0625% reagent; FIG. 2
Procedure: as §1
Paraffin-stimulated whole saliva was collected from a healthy subject. Each saliva sample was mixed by an appropriate means. Immediately prior to analysis, the ex-vivo saliva samples were pretreated with aliquots of Solution 1 to give a range of active dilutions. A control sample containing untreated whole saliva was also prepared for comparison. The dilutions were prepared as in Table 2.
The samples as described in Table 2 were tested for buffering effect on the pH of saliva following acid challenge with a cola beverage. Initial pH values of the treated samples were obtained. A cola beverage (1 mL) was added to the saliva sample. The resultant was mixed for 30 seconds at room temperature at the conclusion of which the pH of the sample was recorded. This process was repeated step-wise up to a total of 40 mL of cola. […]

[4] = Buffering effect on pH of saliva following acid challenge with orange juice; settings: 0.0625% reagent in saliva (Table 3); FIG. 4
Procedure: as §1
Four solutions containing whole saliva and zinc oxide/zinc citrate/arginine at varying proportions were prepared in accordance with the methods laid out in Example 1 above. The solutions contained the same concentrations as Samples 1-4 as defined in Table 2. The samples were tested for buffering effect on the pH of saliva following acid challenge with orange juice. Initial pH values of the treated samples were obtained. Orange juice (0.1 mL) was added to the saliva sample. The resultant was mixed for 30 seconds at room temperature at the conclusion of which the pH of the sample was recorded. This process was repeated step-wise up to a total of 3.0 mL of orange juice. After this point, orange juice was added to the samples in an amount of 0.5 mL up to 5.0 mL. […]

Structure (SMILES)	buffering effect of the 100 ppm arginine solution ([1]; donor C, FIG. 14)	buffering effect of the 100 ppm arginine solution ([1]; donors A or B, FIGS. 12-13)	amount of solution able to match the buffering effect of 200 μL or less zinc oxide/zinc citrate/arginine ([2]; FIGS. 5-7)	shift of isoelectric point in comparison to the untreated sample [3]	ability to buffer the acidic orange juice compared with controls [4]	effect on pH drop after sucrose challenge versus untreated control [1]	acid buffering effect ([2]; FIGS. 5-7)	pH of treated saliva after acid exposure [2]
N=C(N)NCCC[C@H](N)C(=O)O [arginine, L-arginine]	modest buffering was observed	not seen	> 500 µL	acid shifted the isoelectric point in comparison to the untreated sample providing no acid neutralization benefit	–	–	–	–
O.O.O.O=C([O-])CC(O)(CC(=O)[O-])C(=O)[O-].O=C([O-])CC(O)(CC(=O)[O-])C(=O)[O-].[Zn+2].[Zn+2].[Zn+2] [zinc citrate, zinc citrate trihydrate]	–	–	–	acid shifted the isoelectric point in comparison to the untreated sample providing no acid neutralization benefit	no benefit in comparison the untreated control	Buffering effects were observed over the untreated control of each of the donors	little to no buffering effect at all	below 4.0
[O]=[Zn] [zinc oxide]	–	–	–	–	–	Buffering effects were clearly observed over the untreated control of each of the donors	some pH stabilization; also recorded: not showing a dose response above 0.1% treatment	lower in saliva treated with ZnO than zinc oxide/zinc citrate/arginine treated saliva
